# Measurements from patent US10168342B2, “Lipid probes and uses thereof” (THE SCRIPPS RESEARCH INSTITUTE, priority 2015, dated 2019).
# Read-outs that look alike come from different tables or passages of the source.
# What was measured:
# [1] = biological target: T1, AEA-DA lipid probe targets in Neuro2a cells (Mus musculus, UniProt Q8C3X8)
# T1 sequence (Q8C3X8 1-702): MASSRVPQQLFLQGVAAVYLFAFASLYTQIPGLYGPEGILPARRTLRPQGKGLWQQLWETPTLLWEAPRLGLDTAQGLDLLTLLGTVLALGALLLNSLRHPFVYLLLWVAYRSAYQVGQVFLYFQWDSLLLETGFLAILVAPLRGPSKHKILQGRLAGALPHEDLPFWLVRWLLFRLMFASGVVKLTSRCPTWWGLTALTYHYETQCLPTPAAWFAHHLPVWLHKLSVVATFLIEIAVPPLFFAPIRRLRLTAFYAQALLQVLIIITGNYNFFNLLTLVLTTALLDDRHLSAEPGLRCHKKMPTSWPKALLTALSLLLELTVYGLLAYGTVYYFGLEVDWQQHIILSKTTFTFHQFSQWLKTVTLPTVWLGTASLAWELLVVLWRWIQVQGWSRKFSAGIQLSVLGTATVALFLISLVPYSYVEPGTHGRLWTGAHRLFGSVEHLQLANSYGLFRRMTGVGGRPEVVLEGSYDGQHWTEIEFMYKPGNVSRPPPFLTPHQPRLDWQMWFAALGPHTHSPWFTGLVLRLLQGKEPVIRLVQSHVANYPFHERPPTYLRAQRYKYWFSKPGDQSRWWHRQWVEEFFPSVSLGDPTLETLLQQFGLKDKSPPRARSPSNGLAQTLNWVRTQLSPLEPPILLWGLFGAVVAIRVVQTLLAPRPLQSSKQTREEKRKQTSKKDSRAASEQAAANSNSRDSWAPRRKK
# [2] = biological target: AEA-DA lipid probe targets in Neuro2a cells (Mus musculus, UniProt P45377)
# AEA-DA lipid probe targets in Neuro2a cells (Mus musculus, UniProt P45377), sequence (P45377 whole entry): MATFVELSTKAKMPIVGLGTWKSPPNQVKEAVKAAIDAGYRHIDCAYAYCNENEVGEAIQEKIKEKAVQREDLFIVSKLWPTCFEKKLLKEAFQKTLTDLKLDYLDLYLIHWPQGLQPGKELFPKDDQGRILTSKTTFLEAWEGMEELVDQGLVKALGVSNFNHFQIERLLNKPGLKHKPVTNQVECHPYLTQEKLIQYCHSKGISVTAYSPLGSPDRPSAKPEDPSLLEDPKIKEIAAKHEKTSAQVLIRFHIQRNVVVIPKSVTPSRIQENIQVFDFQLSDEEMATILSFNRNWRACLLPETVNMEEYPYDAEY
# [3] = biological target: T2, AEA-DA lipid probe targets in Neuro2a cells (Mus musculus, UniProt D3YZZ5)
# T2 sequence (D3YZZ5 35-224): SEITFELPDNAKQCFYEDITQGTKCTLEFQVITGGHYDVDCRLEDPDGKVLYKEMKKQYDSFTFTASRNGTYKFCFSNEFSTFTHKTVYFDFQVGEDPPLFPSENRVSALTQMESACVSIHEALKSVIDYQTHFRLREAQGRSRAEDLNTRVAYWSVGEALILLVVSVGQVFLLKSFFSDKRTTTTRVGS
# [4] = tested on: PGE2 and TXB2 production in PMA-stimulated A549 cells; assay: Prostaglandin production in A549 cells; format: cell-based, human; conditions: 10 μM, 30 min pre-treatment, then PMA
# Experimental: The old media was removed from each plate and cells were washed with DPBS (2×3 mL) before adding freshly prepared media solutions containing vehicle or compound (3 mL/plate). After incubating for 30 min at 37° C., cells were then stimulated with PMA (10 nM) for 8 h. The media from the cells was then transferred to glass vials containing MS internal standards [PGE2-d9 (10 pmol), PGD2-d9 (10 pmol) and TXB2-d4 (10 pmol)], centrifuged (1,500×g, 5 min) to remove detached cells and then loaded onto preequilibrated reversed phase SPE cartridges (Phenomenex, Strata-X 33 μm, 60 mg/3 mL). After washing cartridges with 5% MeOH/H2O (3 mL), analytes were eluted with MeOH (1.0 mL) and the eluent was concentrated under a stream of N2. Concentrated samples were stored at −80° C. until the day of analysis when they were reconstituted in Mobile Phase A [100 μL, 30% CH3CN in H2O (0.1% AcOH)]. Media extracts were analyzed by LC/MS/MS with LC separation performed on a Kinetex reversed phase C18 column (50×4.6 mm, 2.6 μM particle size, 100Å). Mobile phase gradients were identical to those described above for prostamide analysis and the composition Mobile phases A and B differed only by lacking NH4OAc (5 mM). The following MS parameters were used to measure the indicated metabolites by MRM (precursor ion, product ion, collision energy, polarity): PGE2 (351, 271, 12, negative), PGE2-d9 (360, 280, 12, negative), TXB2 (369, 169, 6, negative), TXB2-d4 (373, 173, 6, negative). PGE2 and TXB2 levels were quantified by determining peak areas in relation to their deuterated internal standard.
structure (smiles),measurement,setting,value
"CCCCC/C=C\C/C=C\C/C=C\C/C=C\CCCC(=O)NCCO [AEA, anandamide, reference compound]",SILAC ratio Lmf2,[1]; competitor 200 μM,1.9
same,"SILAC ratio, Akr1b8",[2]; competitor 200 μM,7.7
same,"SILAC ratio, Tmed7",[3]; competitor 200 μM,1.5
"C=CCN(C)CCCCCCOc1ccc(C(=O)c2ccc(Br)cc2)c(F)c1 [Ro 48-8071, reference compound]",SILAC ratio Lmf2,[1]; competitor 25 μM,1.3
same,"SILAC ratio, Akr1b8",[2]; competitor 25 μM,1.4
same,"SILAC ratio, Tmed7",[3]; competitor 25 μM,1.1
"CN1CCN(C(=O)c2c(-c3ccccc3)c3cc([N+](=O)[O-])ccc3n2C)CC1 [KML110, (1-Methyl-5-nitro-3-phenyl-1H-indol-2-yl)(4-methylpiperazin-1-yl)methanone]",PGE2 synthesis from endogenous AA,[4],suppress
same,TXB2 synthesis from endogenous AA,[4],suppress
same,SILAC ratio Lmf2,[1]; competitor 25 μM,1.7
same,"SILAC ratio, Akr1b8",[2]; competitor 25 μM,3.1
same,"SILAC ratio, Tmed7",[3]; competitor 25 μM,1.6
"O=C(/C=C/c1cccnc1)NCCCCC1CCN(C(=O)c2ccccc2)CC1 [FK-866, reference compound]",PGE2 synthesis from endogenous AA,[4],no effect
same,TXB2 synthesis from endogenous AA,[4],complete suppression
same,SILAC ratio Lmf2,[1]; competitor 25 μM,1.2
same,"SILAC ratio, Akr1b8",[2]; competitor 25 μM,1.7
same,"SILAC ratio, Tmed7",[3]; competitor 25 μM,1.1
"CN1CCN(C(=O)c2[nH]c3ccc([N+](=O)[O-])cc3c2-c2ccccc2)CC1 [MJN228, (4-Methylpiperazin-1-yl)(5-nitro-3-phenyl-1H-indol-2-yl)methanone]",PGE2 synthesis from endogenous AA,[4],suppress
same,TXB2 synthesis from endogenous AA,[4],suppress
same,SILAC ratio Lmf2,[1]; competitor 10 μM,1.5
same,SILAC ratio Lmf2,[1]; competitor 25 μM,1.7
same,SILAC ratio Lmf2,[1]; competitor 50 μM,2.0
same,SILAC ratio Lmf2,[1]; competitor 100 μM,2.5
same,"SILAC ratio, Akr1b8",[2]; competitor 25 μM,1.9
same,"SILAC ratio, Akr1b8",[2]; competitor 50 μM,2.1
same,"SILAC ratio, Akr1b8",[2]; competitor 100 μM,2.7
same,"SILAC ratio, Tmed7",[3]; competitor 10 μM,1.0
same,"SILAC ratio, Tmed7",[3]; competitor 25 μM,1.5
same,"SILAC ratio, Tmed7",[3]; competitor 100 μM,2.1
